The nature of this test: Onset and duration of effect of methylcobalamin administration (subject reports, QEEG). Type of test: in vivo, human. Conditions: varies between persons. The method, then: In a person responsive to methylcobalamin, the effects of methylcobalmin administered nasally may begin to occur within minutes of administration. […] In various experiments, subjects reported feeling better in minutes and sometimes seconds. Thus, improvements can occur within the first hour of administration.
Although the effects of a typical administration can last about 24 hours, every person is different. Thus, some people can become depleted of available methylcobalamin in hours or less, while others can feel the benefits for days. The dosage and frequency of methylcobalamin administration can decrease over time, particularly with changing lifestyle or eating habits. For example, reducing intake of milk and wheat products, complex carbohydrates and starches, and improvements to intestinal flora may reduce the need for methylcobalamin.

This note sets out measurements from US20100168053A1, “ORAL DELIVERY SYSTEM FOR METHYLCOBALAMIN TO TREAT DISORDERS” (REVITAPOP, priority 2008, published 2010).

As for `C/C1=C2/[N-][C@H]([C@H](CC(N)=O)[C@@]2(C)CCC(=O)NC[C@@H](C)OP(=O)([O-])O[C@H]2[C@@H](O)[C@@H](n3cnc4cc(C)c(C)cc43)O[C@@H]2CO)[C@]2(C)N=C(/C(C)=C3N=C(/C=C4N=C1[C@@H](CCC(N)=O)C\4(C)C)[C@@H](CCC(N)=O)[C@]\3(C)CC(N)=O)[C@@H](CCC(N)=O)[C@]2(C)CC(N)=O.[CH3-].[Co+3]` [methylcobalamin], the “duration of effects of a typical administration” value is recorded as “about 24 hours”.
